Laboratory results from US20190201494A1, “COMPOSITIONS AND METHODS FOR TREATING NICOTINE WITHDRAWAL” (STC UNM, priority 2016, published 2019).

Tested on: overnight abstinent smokers
Assay: Positive and Negative Affect Schedule (PANAS) mood ratings (Example 1)
Type: in vivo, human
Description: Intranasal spray administration of insulin or placebo occurred at 12:30 PM. The purpose of the spacing time between morning check-in and nasal spray administration was stabilization of postprandial insulin levels. In a randomized fashion, the study nurse administered one spray in each nostril every three minutes for the total of six sprays of either insulin or placebo. Instructions to perform the Trier Social Stress Test were given at 13:20, and speech delivery occurred 13:30. Briefly, the Trier Social Stress Test^13 is a standardized laboratory stressor consisting of a free speech and a mental arithmetic task in front of an audience. Participants were introduced to the task and instructed to prepare a 5-minute presentation in which they were to promote their candidacy for a job. The speech was delivered after a 10-minute preparation period. Thereafter, participants were introduced to the mental arithmetic task, also standing in front of the audience and a self-projecting television screen. Subjects were required to count backwards from 2023 in steps of 17 as fast and accurately as possible for five minutes; upon making a mistake, subjects were asked to stop and start again at 2023. At every post-stress timepoint (13:40, 13:50, 14:00, 14:10, and 14:40), study nurses checked POC glucose to ensure euglycemia. After the last time point at 14:40, subjects ate a snack, had their glucose level checked, received another nares exam, and were discharged from the clinic at 16:00.
Subjective measures included the Questionnaire on Smoking Urges (QSU) Brief Form and Positive and Negative Affect Schedule (PANAS). Urges to smoke were rated using the 10-item QSU Brief Form^14 that consists of 10-questions. The answers are scored from 1 (strongly disagree) to 7 (strongly agree). These questions are the basis for the two factor derived subscales. Factor 1 subscale reflects a strong desire and intention to smoke with smoking perceived as rewarding. Factor 2 subscale reflects an anticipation of relief from negative affect with an urgent desire to smoke. Study data analysis included evaluations of both factors. The PANAS (Watson et al., 1988. J Pers Soc Psychol 54(6):1063-1070) consists of 10 negative and 10 positive mood terms rated on five-point Likert-type response scales from 1 (very slightly or not at all) to 5 (extremely). Positive and negative scale scores each range between 10 and 50. The PANAS was chosen as a composite measure of self-reported positive and negative affect. Subjective measures were taken at 08:30, 12:20, 13:00, 13:40, 13:50, 14:00, 14:10 and 14:40.
Random coefficient models were constructed for analyzing subjective (i.e., craving and mood), blood (insulin, glucose, C-peptide and nonesterified fatty acids) and cardiovascular (blood pressure) measures. For every model, an evaluation of non-linear term was performed, and, if significance was detected, that polynomial term for time was included in the model. Treatment, time and treatment by time interaction were included as fixed effects. Time nested within subjects was included as a random effect. If an interaction was detected, post hoc comparisons were performed comparing treatment groups at each time point. Cortisol was log-transformed for the purpose of normalizing distribution. The summary measure for cortisol analysis was peak change from baseline. Baseline cortisol was the 8:30 AM measurement, and time period for determination of peak was between 13:40 and 14:40. This time period reflects any cortisol change that resulted from the psychosocial stress procedure, with speech occurring from 13:30 to 13:35 and math from 13:35 to 13:40. Group differences were compared using analysis of variance (ANOVA). Significance values are reported as detected; no adjustments were made for multiple comparisons.

Substance: intranasal insulin: bulk human Regular insulin (U100 Novolin R, Novo Nordisk US), 100 IU/ml, six nasal sprays delivering 60 IU
- Negative mood ratings (PANAS), effect of treatment (60 IU vs placebo): the effect of treatment was not significant
- Positive mood ratings (PANAS), effect of treatment (60 IU vs placebo): no effect
- Negative mood ratings (PANAS), effect of treatment (60 IU vs placebo, listed as Intranasal insulin): no effect
- Negative mood (PANAS), treatment×time interaction, b (SE(b)=0.01, z=0.10, p=0.92, not significant): 0.001
- Positive mood (PANAS), treatment×time interaction, b (SE(b)=0.017, z=−0.97, p=0.33, not significant): −0.01
- Negative mood (PANAS), effect of treatment, b (SE(b)=1.30, z=1.07, p=0.28, not significant): 1.38
- Positive mood (PANAS), treatment, b (SE(b)=2.47, z=−0.19, p=0.84, not significant): −0.47
